According to patent publication US20210322376A1, “METHODS FOR REDUCING THE RISK OF DIABETES IN PATIENTS BEING TREATED FOR HIGH CHOLESTEROL-RELATED ILLNESSES” (Esperion Therapeutics, Inc., priority 2018, published 2021):

Key:
[1] = Muscle-related adverse events with add-on ETC-1002 therapy to statin therapy; format: in vivo
From the text: In some aspects, the subject experiences an adverse event when on one or more statins at the lowest FDA approved dose, said adverse events being selected form the group consisting of muscle-related pain, aches, weakness, and cramping.

[2] = Pharmacokinetics of ETC-1002; settings: human, in vivo
Protocol: In some aspects, the methods herein provide for treating cardiovascular disease and/or reducing the risk of cardiovascular disease in a subject comprising administering an amount of a composition comprising ETC-1002 which is rapidly absorbed having a Tmax at less than about 4 hours.

[3] = Cumulative data of Examples 1-4: new onset or worsening of diabetes; format: in vivo, human; settings: patients taking statins plus bempedoic acid; statins plus placebo 5.6%
[4] = Thorough QT/QTc (TQT) study of ETC-1002; format: in vivo
[5] = Example 2: bempedoic acid vs placebo, statin-intolerant patients with a history of diabetes, 24 weeks; format: in vivo, human; settings: statin intolerant (8% very low dose statin), FIG. 4 and FIG. 5
From the text: (§1) Patients with diabetes were identified primarily through medical history and/or baseline lab results. No entry restrictions were placed on these patients with the exception of having a HbA1c <10% during screening. The use of background concomitant medications related to diabetes treatment was captured at the study outset. Changes in all concomitant medications were tracked during the treatment phase. No restrictions were placed on changes in diabetes medications (stopping, starting, or changing dose) during the trial.
345 total patients with statin intolerance (8% very low dose statin) were treated for 24 weeks. […] Patients were treated with bempedoic acid or placebo. The baseline HbA1c levels for patients receiving bempedoic acid was 6.91%, and the baseline HbA1c levels for patients receiving placebo was 7.12%. The baseline fasting glucose levels for patients receiving bempedoic acid was 130.7 mg/dl. The baseline fasting glucose levels for patients receiving placebo was 139.8 mg/dl. Changes in HbA1c levels were measured at week 12 and week 24 and changes in fasting glucose levels were measured at weeks 4, 12, and 24.

[6] = Example 3: bempedoic acid vs placebo, statin-intolerant patients on background ezetimibe, 12 weeks; format: in vivo, human; settings: statin intolerant (31% low/very low dose statin), FIG. 6 and FIG. 7
From the text: as §1
269 total patients with statin intolerance (31% low/very dose statin) were treated for 12 weeks; all patients on background ezetimibe therapy. […] Patients were treated with bempedoic acid or placebo. The baseline HbA1c levels for patients receiving bempedoic acid was 6.66%, and the baseline HbA1c levels for patients receiving placebo was 6.76%. The baseline fasting glucose levels for patients receiving bempedoic acid was 133.7 mg/dl. The baseline fasting glucose levels for patients receiving placebo was 133.4 mg/dl. Changes in HbA1c levels were measured at week 12, and changes in fasting glucose levels were measured at weeks 4, 8, and 12.

[7] = Example 1: bempedoic acid vs placebo, patients with a history of diabetes on MTD statin, 52 weeks (HbA1c, fasting glucose); format: in vivo, human; settings: background MTD statin (50% high intensity), FIG. 2 and FIG. 3
From the text: as §1
2230 total patients were receiving background MTD statin (50% high intensity) for 52 weeks. […] Patients were treated with bempedoic acid or placebo. The baseline HbA1c levels for patients receiving bempedoic acid was 6.85%, and the baseline HbA1c levels for patients receiving placebo was 6.89%. The baseline fasting glucose levels for patients receiving bempedoic acid was 131.4 mg/dl. The baseline fasting glucose levels for patients receiving placebo was 130.6 mg/dl. Changes in HbA1c levels were measured at week 12 and week 52 and changes in fasting glucose levels were measured at weeks 4, 8, 12, 24, and 36 and 52.

SMILES: CC(C)(CCCCCC(O)CCCCCC(C)(C)C(=O)O)C(=O)O [ETC-1002, 8-hydroxy-2,2,14,14 tetramethylpentadecanedioic acid]
- muscle-related adverse events that began or increased during statin therapy [1]: significantly lowered or even resolved
- Tmax ([2]; rapidly absorbed): < 4 h
- half-life ([2]; systemic exposure, AUCtau,ss): 15 to 27 h
- frequency of new onset or worsening of diabetes and diabetes-related symptoms [3]: 4%
- QTc or QT/QTc prolongation ([4]; TQT study): does not prolong QTc or QT/QTc
- heart rate and PR and QRS intervals ([4]; add-on ETC-1002 therapy): does not affect subject heart rate and PR and QRS intervals
- incidence of diabetes-related phenotypes, worsening of diabetes, new onset of diabetes [5]: reduces incidence of diabetes-related phenotypes, worsening of diabetes, and new onset of diabetes relative to placebo
- incidence of diabetes-related phenotypes, worsening of diabetes, new onset of diabetes [6]: reduces the incidence of diabetes-related phenotypes, worsening of diabetes, and new onset of diabetes relative to placebo
- incidence of diabetes-related phenotypes, worsening of diabetes, new onset of diabetes [7]: reduces the incidence of diabetes-related phenotypes, worsening of diabetes, and new onset of diabetes relative to placebo
